Measured values as given in patent US10920191B2, “Methods of screening embryonic progenitor cell lines” (LINEAGE CELL THERAPEUTICS, INC., priority 2008, dated 2021).

Assays:
Assay type in all cases: cell-based, human
cell line Z2 = assay: Differentiation of cell line Z2 with individual differentiation factors, Illumina microarray readout
Source text: (§1) To reduce variations in gene expression due to cell cycle artifacts, and to capture an early gene expression profile of the cells, upon being expanded to six well plates, on the day the cells reached confluence, the cells were placed in media with a reduction of serum to 0.5% in the case where the original serum concentration was >5%. In all other cases, serum and/or other growth factors was reduced to 10% of their original values. These quiescence conditions were imposed for five days and all cultures were re-fed two days prior to harvest to reduce feeding difference artifacts. So, by way of example, if the original media was DMEM medium with 10% FCS, then the quiescence synchronization media was DMEM with 0.5% FCS. Total RNA was extracted directly from cells growing in 6-well or 6 cm tissue culture plates using Qiagen Rneasy mini kits according to the manufacturer's instructions. RNA concentrations were measured using a Beckman DU530 or Nanodrop spectrophotometer and RNA quality determined by denaturing agarose gel electrophoresis or an Agilent 2100 bioanalyzer. Whole-genome expression analysis was carried out using Affymetrix Human Genome U133 Plus 2.0 GeneChip® system, Illumina Human-6 v1 and HumanRef-8 v1 Beadchips (Illumina 1), and Illumina Human-6 v2 Beadchips (Illumina 2), and RNA levels for certain genes were confirmed by quantitative PCR. For Illumina BeadArrays, total RNA was linearly amplified and biotin-labeled using Illumina TotalPrep kits (Ambion), and cRNA was quality controlled using an Agilent 2100 Bioanalyzer. cRNA was hybridized to Illumina BeadChips, processed, and read using a BeadStation array reader according to the manufacturer's instructions (Illumina). Relative Fluorescence Unit (RFU) values for all of the cell lines with common probe sets were quantile normalized.
The cell lines of the present invention 7SMOO7 (also designated ACTC298 and used at P18), C4.4 (also designated ACTC87 and used at P14), E44 (also designated ACTC170 and used at P18), E69 (also designated ACTC101 and used at P15), SK17 (also designated ACTC162 and used at P14), SK31 (also designated ACTC164 used at P15), SM35 (also designated ACTC260 used at P12), T36 (also designated ACTC198 used at P19), T43 (also designated ACTC120 used at P17), W11 (also designated ACTC197 used at P12), and Z2 (also designated ACTC255 used at P12), are cultured to five day quiescence as described herein or alternatively exposed to differentiation conditions of Differentiation Factor Protocol I in Table VIII. […] RNA was isolated as described herein and analyzed by Illumina microarrays. […]

cell line SK17 = assay: Differentiation of cell line SK17 with individual differentiation factors, Illumina microarray readout; conditions: SK17, after day 14, retinoic acid added (1.0 uM)
Source text: as §1, with “So, by way of example, if the original media was DMEM medium with 10% FCS, then the quiescence synchronization media was DMEM with 0.5% FCS. Total RNA was extracted directly from cells growing in 6-well or 6 cm tissue culture plates using Qiagen Rneasy mini kits according to the manufacturer's instructions.” left out, “Relative Fluorescence Unit (RFU) values for all of the cell lines with common probe sets were quantile normalized.” left out

cell line B16 = assay: Differentiation of cell line B16 in gels containing crosslinked hyaluronic acid and gelatin; conditions: B16, hyaluronic acid/gelatin hydrogel, in the presence of retinoic acid
Source text: The cell line of the present invention designated B16 (ACTC59) that expresses the unique pattern of markers MKX (accession number NM_173576.1), CDH10 (accession number NM_006727.2), MEG3 (accession number NR_002766.1), SCUBE3 (accession number NM_152753.2), and distal HOX genes HOXA11 (accession number NM_000522.3), and HOXD11 (accession number NM_021192.2) when synchronized at quiescence as described herein by culturing 5 days at confluence in DMEM medium with 0.5% serum at passage 16-19 was differentiated in micromass conditions and in a hydrogel containing crosslinked hyaluronic acid and gelatin with supplemented growth factors from Table III as described in Table VIII under the headings “In vitro conditions to induce chondrogenenesis—Micromass Culture” and “Differentiation in gels containing crosslinked hyaluronic acid and gelatin” in the presence of TGFβ3 and retinoic acid as also described in Table VIII under the subheadings “Differentiation in Hydrogels Containing Crosslinked Hyaluronic Acid and Gelatin to Induce Chondrogenesis” and “Retinoic acid and EGF-Containing HyStem-CSS” respectively. […]

W10 cell line = assay: Differentiation of cell line W10, two weeks of culture with retinoic acid; conditions: 1.0 uM all trans retinoic acid
Source text: The HAND2 and SCARA5 positive cell line W10 (also known as ACTC196) whose most distal HOX gene expression was HOXA4, B7, which is described in U.S. patent application Ser. No. 12/504,630 filed on Jul. 16, 2009 and titled “Methods to Accelerate the Isolation of Novel Cell Strains from Pluripotent Stem Cells and Cells Obtained Thereby”, incorporated herein by reference in its entirety, and whose gene expression markers at 18-21 doublings of clonal expansion are disclosed in Table 1, was passaged to P14. […] cells for 14 days under conditions described as In vitro conditions to induce chondrogenenesis—Micromass Culture in Table VIII, that are expected to cause chondrogenic differentiation in cells capable of such differentiation. […] The presence of MYH11 was confirmed by immunocytochemistry.

[1] = Z2 (P12), 14 days, EGF 100 ng/ml, RFU >150 considered positive

bFGF: growth factor used as individual differentiation factor
BMP7 expression by microarray (cell line Z2; Z2, 14 days, 10 ng/mL bFGF): 196 RFU

recombinant human EGF: recombinant human EGF used as differentiation factor
BMP2 expression by microarray (cell line Z2; [1]): 1015 RFU | BMP7 expression by microarray (cell line Z2; [1]): 1084 RFU

CC1=C(/C=C/C(C)=C/C=C/C(C)=C/C(=O)O)C(C)(C)CCC1 [retinoic acid, all-trans retinoic acid]
BMP7 expression by microarray (cell line Z2; Z2, 14 days, 1.0 uM retinoic acid): 271 RFU | MYH11 (smooth muscle marker) expression by microarray (cell line SK17): 1715 RFUs | renin (REN) expression by microarray (cell line SK17): markedly upregulated | NPPB (natriuretic peptide precursor B) expression (cell line B16): 11,851 RFUs | MYH11 expression (W10 cell line): induction of MYH11
